For three compounds, IC50 and melting point results are on record in article PMC9572811, “Synthesis of Novel Benzimidazole-Based Thiazole Derivatives as Multipotent Inhibitors of α-Amylase and α-Glucosidase: In Vitro Evaluation along with Molecular Docking Study” (Molecules, 2022).

Where two headings read alike, the source gives them in different places.

Data set [1] concerns the target T1, α-amylase (Sus scrofa, UniProt P00690).
T1 sequence (P00690 16-511): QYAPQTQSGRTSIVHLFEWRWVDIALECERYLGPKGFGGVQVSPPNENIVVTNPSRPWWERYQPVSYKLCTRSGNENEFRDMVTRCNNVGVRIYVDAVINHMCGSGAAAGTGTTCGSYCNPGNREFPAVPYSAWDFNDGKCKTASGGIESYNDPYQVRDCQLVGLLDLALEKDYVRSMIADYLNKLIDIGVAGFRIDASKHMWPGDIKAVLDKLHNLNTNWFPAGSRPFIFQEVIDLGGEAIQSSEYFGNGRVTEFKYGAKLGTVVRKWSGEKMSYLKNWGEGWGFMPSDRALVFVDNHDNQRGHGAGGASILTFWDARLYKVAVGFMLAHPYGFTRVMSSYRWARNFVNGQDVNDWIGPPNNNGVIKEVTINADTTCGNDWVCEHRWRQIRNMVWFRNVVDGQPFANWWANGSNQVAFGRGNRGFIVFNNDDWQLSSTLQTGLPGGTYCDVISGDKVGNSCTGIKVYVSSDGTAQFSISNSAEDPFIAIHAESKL
In words: α-amylase inhibition assay. The format is biochemical, Porcine.
Description: 3.2. α-amylase inhibition assay
The a-amylase inhibition was determined by an assay modified from Kwon, Apostolidis&
Shetty. Five hundred microlitersof plant extract and all reagents were modified to 40 µL in this
assay. A total of 40 µL of sample and 40 µL of 0.02 M sodiumphosphate buffer (pH 6.9 with
0.006 M sodium chlori de) containinga-amylase solution (Porcine pancreatic a-amylase) (0.5
mg/ml)were incubated at 25 °C for 10 min. After pre-incubation, 40 lLofa 1% starch solution in
0.02M sodium phosphate buffer (pH 6.9with 0.006 M sodium chloride) was added to each tube
at 5 s intervals.The react ion mixtures were then i ncubated at 25 _C for 10 min.The reaction was
stopped with 100 µL of dinitrosalicylic acid colorreagent. The test tubes were then incubated in a
boiling water bathfor 5 min and cooled to room temperature. The reaction mixturewas then
diluted after adding 900 µL distilled water and the absorbancewas measured at 540 nm.
3.3. α-glucosidase inhibition assay
The α-glucosidase inhibition activity was performed with slightmodifications as given by Rahim
et al. Total volume of 100 μLreaction mixture contained, 70 μL 50mM phosphate buffer pH 6.8,
10μL (0.5mM in methanol) test compound, followed by the addition of 10μL (0.057 units, Sigma
Inc.) enzyme solution in the buffer.
and pre-read at 400 nm.The reaction was initiated by the addition of 10 μL of 0.5mM
substrate(p-nitrophenyl glucopyranoside, Sigma Inc.).
absorbance of p-nitrophenol was measured at 400 nm usingthe Synergy HT 96-well plate reader,
BioTek, USA. […] All experiments were carried out in
triplicates(mean ± SEM, n=3). Percent inhibition was calcul ated by the foll owing
Inhibition (%) = (Abs ofControl−Abs of Test/Abs of Control) × 100

[2] abbreviates: in vitro, porcine pancreatic α-amylase, starch substrate, acarbose as standard.

The IC50 is the concentration that gives 50% inhibition. A lower IC50 goes with inhibition by little substance. The term melting point denotes the temperature, or range, at which the solid turns liquid. The compound `O=[N+]([O-])c1ccc(C(CSc2nc3ccccc3[nH]2)=NNc2nc(-c3ccc(F)cc3)cs2)cc1` [Compound 3] had a melting point of 199 to 200 °C. Besides, the IC50 in data set [1] (setting [2]) is 1300 ± 50 nM. In turn, `O=[N+]([O-])c1ccc(/C(CSc2nc3ccccc3[nH]2)=N\Nc2nc(-c3ccc(Cl)c(Cl)c3)cs2)cc1` [Compound 1] returned a melting point of 206 to 207 °C. In data set [1], this compound came in with a half-inhibitory concentration (IC50) of 2200 ± 100 nM. As for `O=[N+]([O-])c1ccc(C(CSc2nc3ccccc3[nH]2)=NNc2nc(-c3ccccc3F)cs2)cc1` [Compound 4], inhibition in data set [1] (setting [2]) was half-maximal at 1900 ± 100 nM (IC50).
